Test results from patent publication US6939863B2, “Prevention of atherosclerosis and restenosis” (priority 2002, dated 2005).
“Also recorded” adds a separate entry of the source. Where two headings read alike, the source gives them in different places.

Assays:
[1] = system: aortas and femoral arteries of cholesterol-fed rabbits; experiment: Atherosclerotic lesions in rabbits on 2% cholesterol diet (Sudan III, intima/media morphometry, immunohistochemistry); assay type: in vivo, New Zealand White rabbits; conditions: for Extent of sudanophilic areas / atherosclerosis in the aorta: 0.1% propylthiouracil in drinking water, 12 weeks; for Alpha-smooth muscle actin-positive cells (VSMCs) in atheromas / VSMC/macrophage ratio in atherosclerotic lesions: CHO+PTU versus CHO alone
Description: At the end of 12 weeks of study, the rabbits were sacrificed. The aortas (from the ascending aorta to the iliac bifurcation) and femoral arteries were removed, rinsed with phosphate-buffered saline (PBS) and stained with Sudan III, or fixed with 4% paraformaldehyde and paraffin-embedded for hematoxylin-eosin staining or immunohistochemical analysis.
For morphometric studies, up to ten cross sections ([…] and 2 millimeters apart from each other) were prepared from each paraffin-embedded segment of the aorta and femoral arteries. The specimens were stained with hematoxylin and eosin. For each cross section of an arterial specimen, the intimal and medial areas were measured.
For immunohistochemical studies, the arterial sections were deparaffinized, rehydrated and blocked in PBS containing 1% bovine serum albumin and 1% goat serum at room temperature for 30 minutes. The sections were then incubated with mouse monoclonal antibodies against smooth muscle cell alpha-actin (clone 1A4, catalogue number M0851, DAKO Corp., Carpenteria, Calif.) and mouse monoclonal antibodies against rabbit macrophages (clone RAM 11, catalogue number M0633, DAKO Corp., Carpenteria, Calif.) at 4° C. overnight. Subsequently, immunohistochemistry was performed using a commercially available peroxidase-labelled streptavidin-biotin kit (DAKO LSAB peroxidase, catalogue number K0675, DAKO, Carpenteria, Calif.) and 3,3′-diaminobenzidine tetrahydrochloride (DAKO liquid DAB+ substrate-chromagen system, catalogue number K3468, DAKO, Carpenteria, Calif.) according to the procedures provide by manufacturer.

[2] = system: rat vascular smooth muscle cells; experiment: [methyl-3H]thymidine incorporation into VSMCs; assay type: cell-based
Description: Rat vascular smooth muscle cells (VSMCs) (passages 5-10) were prepared from Sprague-Dawley rats and cultured in Dulbecco's modified Eagle's medium (DMEM) supplemented with 10% fetal bovine serum (FBS) as previously described (Kirschenlohr et al, in “Human Cell Culture Protocols”, New Jersey, Humana Press Inc, 1996, pp. 318-335). Human endothelial cells from umbilical veins were prepared as described (Morgan, in “Human Cell Culture Protocols”, New Jersey, Humana Press Inc, 1996, pp. 101-152)
Rat vascular smooth muscle cells and human endothelial cells were plated at a density of 10,000 cells per square centimeter in 24-well plates. After 24 hours, cells at 70-80% confluency were treated with propylthiouracil dissolved in 100% dimethylsulfoxide (DMSO) at final concentrations of from 0.05 millimolar to 15 millimolar, or with methimazole (Sigma, St. Louis, Mo.) dissolved in water at the concentrations of from 0.01 millimolar to 1 millimolar for 24-72 hours. Cell numbers were visually counted using a hemocytometer. For the thymidine incorporation study, cells were deprived of serum for 36 hours and labeled with [methyl-^3H]thymidine at […] per milliliter for 12-24 hours after synchronization. Thymidine incorporation was then measured (Newby and George, 1996, Curr. Opin. Cardiol., 11:547). Effects of propylthiouracil and methimazole on the number of vascular smooth muscle cells and human endothelial cells and thymidine incorporation by vascular smooth muscle cells were each expressed as a percentage of the number and thymidine incorporation of control cells maintained in medium containing 0.1% DMSO as vehicle.

[3] = system: type I and type III collagen expression in rat vascular smooth muscle cells; conditions: 5 millimolar
Description: The expression of smooth muscle cell collagen was determined by Northern blot analysis at the RNA level and Western blot analysis on the protein level. Total RNA (10 micrograms) from vascular smooth muscle cells grown in the media containing 0 (Control), 0.5 millimolar, 2.5 millimolar, or 5 millimolar propylthiouracil (PTU) for 24 hours was electrophoresed on a 1% agarose gel. The levels of pro-α1(I) collagen mRNA were measured as radioactivities, normalized relative to the density of 18S and 28S rRNA (FIG. 12, Panel A).
The effects of lower physiological concentrations of propylthiouracil on the expression of type I and type III collagen genes was also studied at the RNA level. Northern blot analysis was carried out on total RNA from rat vascular smooth muscle cells grown for 24 to 72 hours (1 to 3 days) in media containing 0 (Control, C), 0.38 millimolar, 0.5 millimolar, or 0.76 millimolar propylthiouracil. Type I collagen (FIG. 13, Panel A) and type III collagen (FIG. 13, Panel B) mRNA radioactivity levels were normalized relative to 18S and 28S rRNA (FIG. 13, Panel C).
Type I collagen (FIG. 14, Panel A) and type III collagen (FIG. 14, Panel B) protein levels were normalized relative to the protein levels of tubulin. […]

[4] = system: rat vascular smooth muscle cells
[5] = system: rat vascular smooth muscle cells; conditions: for Pyknosis or karyorhexis (features of apoptosis), propidium iodide-stained cells: 5 millimolar, 24 hours
[6] = system: rat vascular smooth muscle cells; conditions: summary table, propylthiouracil; non-contractile to contractile phenotype in vitro
[7] = summary table; cited from earlier work
restenosis = conditions: summary table; cited from earlier work; note: key: '+' represents the ability; a '−' represents the inability of conversion from a non-contracile phenotype to a contractile phenotype in an in vitro condition; A '↓' represents decrease; a '?' represents no data is available
[8] = Rabbit 12-week study: body weight, chow and water consumption, serum lipids, thyroid hormone index, blood counts, arterial pressure, heart rate; conditions: for Weight at sacrifice / Chow consumption: 12 weeks; for Chow consumption / Water consumption: mean ± SD
[9] = propylthiouracil-treated groups
Throughout, for Anti-inflammation: key: '+' represents the ability; a '−' represents the inability of conversion from a non-contracile phenotype to a contractile phenotype in an in vitro condition; A '↓' represents decrease; a '?' represents no data is available.

CCCc1cc(=O)[nH]c(=S)[nH]1 [Propylthiouracil, 6-n-propyl-2-thiouracil]
Extent of sudanophilic areas / atherosclerosis in the aorta ([1]; 2% cholesterol diet): markedly less; also recorded: significantly decreased | Extent of sudanophilic areas / atherosclerosis in the aorta ([1]; 2% cholesterol diet, listed as PTU): markedly less | Alpha-smooth muscle actin-positive cells (VSMCs) in atheromas [1]: significantly fewer | VSMC/macrophage ratio in atherosclerotic lesions [1]: reduce | Alpha-smooth muscle actin-positive cells (VSMCs) in atheromas ([1]; listed as PTU): markedly fewer | VSMC/macrophage ratio in atherosclerotic lesions ([1]; listed as PTU): decreased | Intima/media area ratio ([1]; ascending aorta, aortic arch and femoral arteries, 2% cholesterol diet): deceased significantly | Visible atherosclerotic lesion in aortas and arteries ([1]; normal chow, Groups 2 and 3, data not shown): no visible atherosclerotic lesion | TUNEL-positive cells in aortas of rabbits ([1]; propylthiouracil and cholesterol/propylthiouracil treatment groups): absent | Thymidine incorporation into VSMCs ([2]; 0.05 millimolar): 99 % of control | Thymidine incorporation into VSMCs ([2]; 0.5 millimolar): 93 % of control | Thymidine incorporation into VSMCs ([2]; 2.5 millimolar): 75 % of control | Thymidine incorporation into VSMCs ([2]; 5 millimolar): 38 % of control | Inhibition of thymidine incorporation into VSMCs ([2]; concentration-dependent): significantly inhibited | Staining density for type I collagen (immunocytochemistry) [3]: decrease | Staining density for type III collagen (immunocytochemistry) [3]: decrease | Cytotoxic effect on VSMCs by trypan blue exclusion test ([4]; 24 hours): no cytotoxic effect | Number of cells that excluded trypan blue ([4]; 24 hours treatment, n=5): 94.4±0.4% | Pyknosis or karyorhexis (features of apoptosis), propidium iodide-stained cells [5]: did not cause any pyknosis or karyorhexis | Pyknosis or karyorhexis (features of apoptosis), propidium iodide-stained cells ([5]; listed as propylthiouracil): did not cause pyknosis or karyorhexis | TUNEL-positive cells in VSMCs ([5]; propylthiouracil-treated VSMCs): absent | Phenotype change [6]: + | Anti-inflammation [7]: + | Effect on animal models of restenosis, Rat (restenosis): + | Serum (milligrams percent) at sacrifice ([8]; 2% cholesterol diet): 43 ± 33 milligrams percent | Serum CHO at sacrifice ([8]; 2% cholesterol diet): 1965 ± 156 milligrams percent | Serum HDL at sacrifice ([8]; 2% cholesterol diet): 67 ± 24 milligrams percent | Serum LDL at sacrifice ([8]; 2% cholesterol diet): 1856 ± 152 milligrams percent | Serum TG at sacrifice ([8]; 2% cholesterol diet): 213 ± 167 milligrams percent | Weight at sacrifice ([8]; 2% cholesterol diet): 3.06 ± 0.17 kilograms | Chow consumption ([8]; 2% cholesterol diet): 123 ± 18 grams per day | Water consumption ([8]; 2% cholesterol diet): 201 ± 41 milliliters per day | Body weight at the end of treatment ([8]; PTU and CHO+PTU groups, despite decreased water and chow intake): did not have a reduction in the body weight | Serum thyroxine (T4) ([8]; after 4 weeks of treatment): decreased-to unmeasurable levels | Serum triiodothyronine (T3) ([8]; after 4 weeks of treatment): decreased-to unmeasurable levels; also recorded: decreased to unmeasurable levels | Thyrotropin (TSH) level ([8]; hypothyroid groups): increase | Arterial pressures and heart rates ([8]; hypothyroid propylthiouracil-treated groups): did not have their arterial pressures and heart rates altered | Serum (milligrams percent) at sacrifice ([8]; normal chow): 32 ± 8 milligrams percent | Serum CHO at sacrifice ([8]; normal chow): 154 ± 22 milligrams percent | Serum HDL at sacrifice ([8]; normal chow): 43 ± 30 milligrams percent | Serum LDL at sacrifice ([8]; normal chow): 82 ± 32 milligrams percent | Serum TG at sacrifice ([8]; normal chow): 175 ± 50 milligrams percent | Weight at sacrifice ([8]; normal chow): 3.08 ± 0.17 kilograms | Chow consumption ([8]; normal chow): 113 ± 13 grams per day | Water consumption ([8]; normal chow): 196 ± 17 milliliters per day | Serum cholesterol, triglyceride, LDL, and VLDL levels compared with the control group ([8]; normal chow, propylthiouracil only (Group 2)): slight increase | Agranulocytosis [8, 9]: did not occur | Blood counts [8, 9]: remained essentially unchanged
